Results published in patent US20230141101A1, “PDE4 INHIBITOR COMPOUND AND MEDICAL USE THEREOF” (Suzhou Longbotai Pharmaceuticals Co., Ltd., priority 2020, published 2023).

How the values were obtained:
Format in all cases: biochemical
Details in all cases: 20 nM
PDE4A1A = biological target: T1, PDE4A1A (Homo sapiens, UniProt P27815); assay: PDE4 inhibitory activity assay (FAM-cAMP enzymatic reaction), PDE4A1A
T1 construct: purchased BPS 60040
Procedure, shortened: (§1)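 Human PDE4A1A, PDE4B1 or PDE4D2 preincubated with compound 15 min at room temperature, then FAM-cAMP substrate added; reaction 30 min at room temperature before stop solution and further 60 min. Fluorescence read on multilabel counter; IC50 fitted from inhibition rates.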

PDE4B1 = biological target: T2, PDE4B1 (Homo sapiens, UniProt Q07343); assay: PDE4 inhibitory activity assay (FAM-cAMP enzymatic reaction), PDE4B1
T2 construct: purchased BPS 60041
Procedure, shortened: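 Each isoform is incubated with test compound for 15 min at room temperature before FAM-cAMP substrate starts a 30-min reaction.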

PDE4D2 = PDE4D2 (Homo sapiens, UniProt Q08499); assay: PDE4 inhibitory activity assay (FAM-cAMP enzymatic reaction), PDE4D2
Procedure, shortened: as §1

Chain of PDE4D2 (Q08499 303-809): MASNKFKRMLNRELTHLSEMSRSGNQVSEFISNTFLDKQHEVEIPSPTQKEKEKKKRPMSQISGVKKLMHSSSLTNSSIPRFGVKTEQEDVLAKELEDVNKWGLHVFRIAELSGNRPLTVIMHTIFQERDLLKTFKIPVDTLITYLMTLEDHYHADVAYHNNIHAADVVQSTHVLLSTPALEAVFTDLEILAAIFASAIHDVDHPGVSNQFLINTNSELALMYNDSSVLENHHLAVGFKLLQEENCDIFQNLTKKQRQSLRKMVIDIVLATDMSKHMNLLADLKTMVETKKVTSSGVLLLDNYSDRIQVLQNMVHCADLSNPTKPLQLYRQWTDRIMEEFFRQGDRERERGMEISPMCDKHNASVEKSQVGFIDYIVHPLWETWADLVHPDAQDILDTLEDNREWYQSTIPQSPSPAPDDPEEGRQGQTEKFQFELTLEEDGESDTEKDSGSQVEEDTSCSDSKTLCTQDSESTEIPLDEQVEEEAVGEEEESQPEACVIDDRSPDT
T2 sequence (Q07343 whole entry): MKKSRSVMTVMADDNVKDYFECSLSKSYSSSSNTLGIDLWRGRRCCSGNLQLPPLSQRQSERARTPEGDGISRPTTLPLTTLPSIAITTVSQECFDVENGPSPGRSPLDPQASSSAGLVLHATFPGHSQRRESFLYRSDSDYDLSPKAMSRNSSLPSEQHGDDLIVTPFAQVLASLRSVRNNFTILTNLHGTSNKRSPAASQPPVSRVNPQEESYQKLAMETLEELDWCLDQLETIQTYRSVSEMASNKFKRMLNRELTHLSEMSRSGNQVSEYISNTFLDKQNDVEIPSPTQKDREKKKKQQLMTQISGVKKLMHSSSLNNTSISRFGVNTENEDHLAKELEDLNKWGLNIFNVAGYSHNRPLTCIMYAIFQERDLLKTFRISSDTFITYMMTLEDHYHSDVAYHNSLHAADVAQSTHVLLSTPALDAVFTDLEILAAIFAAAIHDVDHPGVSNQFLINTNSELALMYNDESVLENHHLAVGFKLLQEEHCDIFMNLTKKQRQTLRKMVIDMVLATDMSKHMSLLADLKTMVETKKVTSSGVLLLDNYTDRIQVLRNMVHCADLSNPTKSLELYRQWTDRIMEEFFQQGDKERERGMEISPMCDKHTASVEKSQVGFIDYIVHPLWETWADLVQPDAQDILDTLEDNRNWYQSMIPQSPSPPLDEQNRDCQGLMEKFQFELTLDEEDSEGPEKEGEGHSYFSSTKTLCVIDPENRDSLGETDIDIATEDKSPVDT
T1 sequence (P27815 1-647 isoform P27815-4): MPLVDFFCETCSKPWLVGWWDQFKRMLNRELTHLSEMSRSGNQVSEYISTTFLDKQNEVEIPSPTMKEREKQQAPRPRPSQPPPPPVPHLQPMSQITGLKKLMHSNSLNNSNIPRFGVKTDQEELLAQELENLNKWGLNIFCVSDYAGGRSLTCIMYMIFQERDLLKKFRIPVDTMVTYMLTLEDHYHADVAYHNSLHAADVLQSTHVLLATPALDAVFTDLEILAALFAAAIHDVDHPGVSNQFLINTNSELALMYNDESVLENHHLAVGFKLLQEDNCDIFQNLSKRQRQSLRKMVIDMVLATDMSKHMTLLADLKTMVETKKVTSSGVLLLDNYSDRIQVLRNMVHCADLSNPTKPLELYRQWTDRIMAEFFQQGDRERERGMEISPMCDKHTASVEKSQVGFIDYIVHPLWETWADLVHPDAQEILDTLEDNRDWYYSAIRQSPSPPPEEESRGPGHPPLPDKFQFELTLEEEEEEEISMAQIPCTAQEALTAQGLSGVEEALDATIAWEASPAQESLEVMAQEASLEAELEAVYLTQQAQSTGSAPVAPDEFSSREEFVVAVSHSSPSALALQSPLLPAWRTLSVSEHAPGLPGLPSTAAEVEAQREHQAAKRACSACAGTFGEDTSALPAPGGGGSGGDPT

Row | SMILES | PDE4 A1 inhibitory effect at 20 nM (PDE4A1A) | PDE4 B1 inhibitory effect at 20 nM (PDE4B1) | PDE4 D2 inhibitory effect at 20 nM (PDE4D2)
1 | CCOc1nc([C@@H](CS(C)(=O)=O)n2c(=O)n(CC)c3cc(-c4ccccn4)ccc32)ccc1OC [Ex. 197, (S)-1-(1-(6-ethoxy-5-methoxypyridin-2-yl)-2-(methylsulfonyl)ethyl)-3-ethyl-5-(pyridin-2-yl)-1H-benzo[d]imidazol-2(3H)-one] | + | + | +
2 | CCOc1nc([C@@H](CS(C)(=O)=O)n2c(=O)n(CCOC)c3cc(-c4ccccn4)ccc32)ccc1OC [Ex. 198, (S)-1-(1-(6-ethoxy-5-methoxypyridin-2-yl)-2-(methylsulfonyl)ethyl)-3-(2-methoxyethyl)-5-(pyridin-2-yl)-1H-benzo[d]imidazol-2(3H)-one] | + | + | +
3 | CCOc1nc([C@@H](CS(C)(=O)=O)n2c(=O)[nH]c3c(-c4ccccc4OC)cccc32)ccc1OC [Ex. 203, (S)-1-(1-(6-ethoxy-5-methoxypyridin-2-yl)-2-(methylsulfonyl)ethyl)-4-(2-methoxyphenyl)-1H-benzo[d]imidazol-2(3H)-one] | + | + | +
4 | CCOc1nc([C@@H](CS(C)(=O)=O)n2c(=O)[nH]c3c(-c4ccccc4C)cccc32)ccc1OC [Ex. 204, (S)-1-(1-(6-ethoxy-5-methoxypyridin-2-yl)-2-(methylsulfonyl)ethyl)-4-(o-methylphenyl)-1H-benzo[d]imidazol-2(3H)-one] | + | + | +
5 | CCOc1nc([C@@H](CS(C)(=O)=O)n2c(=O)[nH]c3c(-c4ccccc4F)cccc32)ccc1OC [Ex. 205, (S)-1-(1-(6-ethoxy-5-methoxypyridin-2-yl)-2-(methylsulfonyl)ethyl)-4-(2-fluorophenyl)-1H-benzo[d]imidazol-2(3H)-one] | + | + | +
6 | CCOc1nc([C@@H](CS(C)(=O)=O)n2c(=O)[nH]c3c(-c4ccccc4)cccc32)ccc1OC [Ex. 206, (S)-1-(1-(6-ethoxy-5-methoxypyridin-2-yl)-2-(methylsulfonyl)ethyl)-4-phenyl-1H-benzo[d]imidazol-2(3H)-one] | + | + | +
7 | CCOc1nc([C@@H](CS(C)(=O)=O)n2c(=O)[nH]c3c(Cc4ccccc4F)cccc32)ccc1OC [Ex. 207, (S)-1-(1-(6-ethoxy-5-methoxypyridin-2-yl)-2-(methylsulfonyl)ethyl)-4-(2-fluorobenzyl)-1H-benzo[d]imidazol-2(3H)-one] | + | + | +
8 | CCOc1nc([C@@H](CS(C)(=O)=O)n2c(=O)n(C3CC3)c3cc(-c4ccccc4F)ccc32)ccc1OC [Ex. 208, (S)-3-cyclopropyl-1-(1-(6-ethoxy-5-methoxypyridin-2-yl)-2-(methylsulfonyl)ethyl)-5-(2-fluorophenyl)-1H-benzo[d]imidazol-2(3H)-one] | + | + | +
9 | CCOc1nc([C@@H](CS(C)(=O)=O)n2c(=O)n(C3CC3)c3cc(C)ccc32)ccc1OC [Ex. 209, (S)-3-cyclopropyl-1-(1-(6-ethoxy-5-methoxypyridin-2-yl)-2-(methylsulfonyl)ethyl)-5-methyl-1H-benzo[d]imidazol-2(3H)-one] | + | + | +
10 | CCOc1nc([C@@H](CS(C)(=O)=O)n2c(=O)n(CCS(C)(=O)=O)c3cc(Br)ccc32)ccc1OC [Ex. 210, (S)-5-bromo-1-(1-(6-ethoxy-5-methoxypyridin-2-yl)-2-(methylsulfonyl)ethyl)-3-(2-(methylsulfonyl)ethyl)-1H-benzo[d]imidazol-2(3H)-one] | − | − | −
11 | CCOc1nc([C@@H](CS(C)(=O)=O)n2c(=O)n(C3CC3)c3cc(C(F)(F)F)ccc32)ccc1OC [Ex. 211, (S)-3-cyclopropyl-1-(1-(6-ethoxy-5-methoxypyridin-2-yl)-2-(methylsulfonyl)ethyl)-5-(trifluoromethyl)-1H-benzo[d]imidazol-2(3H)-one] | + | + | +
12 | CCOC(=O)c1ccc2c(c1)[nH]c(=O)n2[C@H](CS(C)(=O)=O)c1ccc(OC)c(OCC)n1 [Ex. 212, (S)-ethyl 1-(1-(6-ethoxy-5-methoxypyridin-2-yl)-2-(methylsulfonyl)ethyl)-2-oxo-2,3-dihydro-1H-benzo[d]imidazole-5-carboxylate] | + | + | +
13 | CCOc1nc([C@@H](CS(C)(=O)=O)n2c(=O)[nH]c3cc(C(=O)OC(C)C)ccc32)ccc1OC [Ex. 213, (S)-isopropyl 1-(1-(6-ethoxy-5-methoxypyridin-2-yl)-2-(methylsulfonyl)ethyl)-2-oxo-2,3-dihydro-1H-benzo[d]imidazole-5-carboxylate] | + | + | +
14 | CCOc1nc([C@@H](CS(C)(=O)=O)n2c(=O)[nH]c3cc(C(=O)OCC(F)(F)F)ccc32)ccc1OC [Ex. 214, (S)-2,2,2-trifluoroethyl 1-(1-(6-ethoxy-5-methoxypyridin-2-yl)-2-(methylsulfonyl)ethyl)-2-oxo-2,3-dihydro-1H-benzo[d]imidazole-5-carboxylate] | + | + | +
15 | CCOc1nc([C@@H](CS(C)(=O)=O)N2Cc3cccc(NC(C)=O)c3C2=O)ccc1OC [Ex. 215, (S)—N-(2-(1-(6-ethoxy-5-methoxypyridin-2-yl)-2-(methylsulfonyl)ethyl)-3-oxoisoindolin-4-yl)acetamide] | + | + | +
16 | CCOc1nc([C@H](CS(C)(=O)=O)N2Cc3cccc(NC(C)=O)c3C2=O)ccc1OC [Ex. 216, (R)—N-(2-(1-(6-ethoxy-5-methoxypyridin-2-yl)-2-(methylsulfonyl)ethyl)-3-oxoisoindolin-4-yl)acetamide] | + | + | +
17 | CCOc1nc([C@@H](CS(C)(=O)=O)N2Cc3cccc(NC(=O)C4CC4)c3C2=O)ccc1OC [Ex. 217, (S)—N-(2-(1-(6-ethoxy-5-methoxypyridin-2-yl)-2-(methylsulfonyl)ethyl)-3-oxoisoindolin-4-yl)cyclopropanecarboxamide] | + | + | +
18 | CCOc1nc([C@H](CS(C)(=O)=O)N2Cc3cccc(NC(=O)C4CC4)c3C2=O)ccc1OC [Ex. 218, (R)—N-(2-(1-(6-ethoxy-5-methoxypyridin-2-yl)-2-(methylsulfonyl)ethyl)-3-oxoisoindolin-4-yl)cyclopropanecarboxamide] | + | + | +
19 | CCOc1nc([C@@H](CS(C)(=O)=O)N2Cc3cccc(NC(=O)CC)c3C2=O)ccc1OC [Ex. 219, (S)—N-(2-(1-(6-ethoxy-5-methoxypyridin-2-yl)-2-(methylsulfonyl)ethyl)-3-oxoisoindolin-4-yl)propionamide] | + | + | +
20 | CCOc1nc([C@H](CS(C)(=O)=O)N2Cc3cccc(NC(=O)CC)c3C2=O)ccc1OC [Ex. 220, (R)—N-(2-(1-(6-ethoxy-5-methoxypyridin-2-yl)-2-(methylsulfonyl)ethyl)-3-oxoisoindolin-4-yl)propionamide] | − | − | −
21 | CCOc1nc(C(CS(C)(=O)=O)N2C(=O)c3csc([N+](=O)[O-])c3C2=O)ccc1OC (stereo not drawn) [Ex. 221, 5-(1-(6-ethoxy-5-methoxypyridin-2-yl)-2-(methylsulfonyl)ethyl)-1-nitro-4H-thieno[3,4-c]pyrrol-4,6(5H)-dione] | + | + | +
22 | CCOc1nc([C@@H](CS(C)(=O)=O)N2C(=O)c3csc([N+](=O)[O-])c3C2=O)ccc1OC [Ex. 222, (S)-5-(1-(6-ethoxy-5-methoxypyridin-2-yl)-2-(methylsulfonyl)ethyl)-1-nitro-4H-thieno[3,4-c]pyrrol-4,6(5H)-dione] | + | + | +
23 | CCOc1nc([C@@H](CS(C)(=O)=O)N2C(=O)c3csc(N)c3C2=O)ccc1OC [Ex. 223, (S)-1-amino-5-(1-(6-ethoxy-5-methoxypyridin-2-yl)-2-(methylsulfonyl)ethyl)-4H-thieno[3,4-c]pyrrol-4,6 (5H)-dione] | + | + | +
24 | CCOc1nc(C(CS(C)(=O)=O)N2C(=O)c3csc(NC(C)=O)c3C2=O)ccc1OC (stereo not drawn) [Ex. 224, N-(5-(1-(6-ethoxy-5-methoxypyridin-2-yl)-2-(methylsulfonyl)ethyl)-4,6-dioxo-5,6-dihydro-4H-thieno[3,4-c]pyrrol-1-yl)acetamide] | + | + | +
